Patent US20160272617A1, “SUBSTITUTED PHENYLALANINE DERIVATIVES” (BAYER PHARMA AKTIENGESELLSCHAFT, priority 2013, published 2016)
Counter-ions that a name gives are not always drawn.

Columns and labels:
human factor XIa = target: T1, human factor XIa (Homo sapiens, UniProt P03951); experiment: Measurement of FXIa inhibition (fluorogenic peptide substrate Boc-Glu(OBzl)-Ala-Arg-AMC); type: biochemical; conditions: factor XIa from Kordia, 15 min preincubation, 30 min at 22° C., fluorescence
T1 construct: purchased Kordia
Method: The factor XIa inhibition of the inventive substances is determined using a biochemical test system which utilizes the reaction of a peptidic factor XIa substrate to determine the enzymatic activity of human factor XIa. Here, factor XIa cleaves from the peptic factor XIa substrate the C-terminal aminomethylcoumarin (AMC), the fluorescence of which is measured. The determinations are carried out in microtitre plates.
Test substances are dissolved in dimethyl sulphoxide and serially diluted in dimethyl sulphoxide (3000 μM to 0.0078 μM; resulting final concentrations in the test: 50 μM to 0.00013 μM). In each case 1 μl of the diluted substance solutions is placed into the wells of white microtitre plates from Greiner (384 wells). Subsequently, the following are added successively: 20 μl of assay buffer (50 mmol/l Tris buffer pH 7.4; 100 mmol/l sodium chloride; 5 mmol/l calcium chloride; 0.1% bovine serum albumin) and 20 μl of factor XIa from Kordia (0.45 nM in assay buffer). After 15 min of incubation, the enzyme reaction is started by addition of 20 μl of the factor XIa substrate Boc-Glu(OBzl)-Ala-Arg-AMC dissolved in assay buffer (10 μM in assay buffer) from Bachem, the mixture is incubated at room temperature (22° C.) for 30 min and fluorescence is then measured (excitation: 360 nm, emission: 460 nm). The measured emissions of the test mixtures with test substance are compared to those of control mixtures without test substance (only dimethyl sulphoxide instead of test substance in dimethyl sulphoxide), and the IC50 values are calculated from the concentration/activity relationships.

human and animal plasma = experiment: Determination of anticoagulatory activity: activated partial thromboplastin time (aPTT) in plasma; conditions: concentration of test substance which brings about a 1.5-fold extension of the aPTT, plasma species not given
Method: The anticoagulatory activity of the test substances is determined in vitro in human and animal plasma (for example mouse, rat, rabbit, pig and dog plasma). To this end, blood is drawn off in a mixing ratio of sodium citrate/blood of 1:9 using a 0.11 molar sodium citrate solution as receiver. Immediately after the blood has been drawn off, it is mixed thoroughly and centrifuged at about 4000 g for 15 minutes. The supernatant is pipetted off.
The activated partial thromboolastin time (aPTT) is determined in the presence of varying concentrations of test substance or the corresponding solvent using a commercial test kit (C. K. Prest from Diagnostica Stago). The test compounds are incubated with the plasma and the PTT reagent (cephalin, kaolin) at 37° C. for 3 minutes. Coagulation is then started by addition of a 25 mM aqueous calcium chloride solution, and the time when coagulation occurs is determined. The concentration of test substance which brings about a 1.5-fold extension of the aPTT is determined.

T1 sequence (P03951 388-625 limits assumed): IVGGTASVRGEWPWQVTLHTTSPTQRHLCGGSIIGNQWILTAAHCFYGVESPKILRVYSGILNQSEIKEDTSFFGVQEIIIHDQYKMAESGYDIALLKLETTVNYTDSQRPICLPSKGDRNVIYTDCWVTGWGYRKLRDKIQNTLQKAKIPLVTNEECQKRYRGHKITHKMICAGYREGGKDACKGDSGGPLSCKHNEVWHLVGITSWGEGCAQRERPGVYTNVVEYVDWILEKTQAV
T1 sequence (P03951 19-387 partner limits assumed): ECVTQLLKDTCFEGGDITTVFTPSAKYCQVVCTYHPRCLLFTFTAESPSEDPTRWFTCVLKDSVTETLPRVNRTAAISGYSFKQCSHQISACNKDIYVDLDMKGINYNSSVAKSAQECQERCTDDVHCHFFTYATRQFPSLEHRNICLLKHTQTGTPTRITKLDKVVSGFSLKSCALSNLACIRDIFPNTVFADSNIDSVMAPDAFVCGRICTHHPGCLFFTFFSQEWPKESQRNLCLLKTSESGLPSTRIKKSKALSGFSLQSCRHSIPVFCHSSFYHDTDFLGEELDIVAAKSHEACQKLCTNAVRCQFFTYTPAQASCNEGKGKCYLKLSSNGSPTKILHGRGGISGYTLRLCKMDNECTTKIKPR

| SMILES | IC50 (human factor XIa) [nM] | aPTT (human and animal plasma) [µmol/L] | aPTT (human and animal plasma; hydrochloride) [µmol/L] |
| --- | --- | --- | --- |
| Cc1cc(C(N)=O)ccc1-c1ccc(C[C@H](NC(=O)[C@H]2CC[C@H](CN)CC2)C(=O)Nc2ccc(-c3nn[nH]n3)cc2)cc1 [Example 14, 4′-[(2S)-2-({[trans-4-(Aminomethyl)cyclohexyl]carbonyl}amino)-3-oxo-3-{[4-(2H-tetrazol-5-yl)phenyl]amino}propyl]-2-methylbiphenyl-4-carboxamide hydrochloride] | 1.4 | 0.49 | – |
| Cc1cc(C(=O)N[C@@H]2C[C@@H](CO)NC2=O)ccc1-c1ccc(C[C@H](NC(=O)[C@H]2CC[C@H](CN)CC2)C(=O)Nc2ccc(-c3nc(C(F)(F)C(F)(F)C(=O)O)n[nH]3)cc2)cc1 [Example 106, 3-[5-(4-{[(2S)-2-({[trans-4-(Aminomethyl)cyclohexyl]carbonyl}amino)-3-(4′-{[(3R,5S)-5-(hydroxymethyl)-2-oxopyrrolidin-3-yl]carbamoyl}-2′-methylbiphenyl-4-yl)propanoyl]amino}-phenyl)-1H-1,2,4-triazol-3-yl]-2,2,3,3-tetrafluoropropanoic acid hydrochloride] | 1.1 | 0.11 | – |
| Cc1cc(C(=O)N[C@H]2CC[C@H](N(C)C)CC2)ccc1-c1ccc(C[C@H](NC(=O)[C@H]2CC[C@H](CN)CC2)C(=O)Nc2ccc3[nH]c(C(F)(F)C(F)(F)F)nc3c2)cc1 [Example 78, 4′-[(2S)-2-({[trans-4-(Aminomethyl)cyclohexyl]carbonyl}amino)-3-oxo-3-{[2-(pentafluoroethyl)-1H-benzimidazol-5-yl]amino}propyl]-N-[4-(dimethylamino)cyclohexyl]-2-methylbiphenyl-4-carboxamide hydrochloride] | 12 | 0.38 | – |
| Cc1cc(C(=O)NC2CCC(N(C)C)CC2)ccc1-c1ccc(CC(NC(=O)[C@H]2CC[C@H](CN)CC2)C(=O)Nc2ccc(-c3nc(C(F)(F)C(F)(F)C(=O)O)n[nH]3)cc2)cc1 (stereo partly drawn) [Example 101, 3-[5-(4-{[(2S)-2-({[trans-4-(Aminomethyl)cyclohexyl]carbonyl}amino)-3-(4′-{[4-(dimethyl-amino)cyclohexyl]carbamoyl}-2′-methylbiphenyl-4-yl)propanoyl]amino}phenyl)-1H-1,2,4-triazol-3-yl]-2,2,3,3-tetrafluoropropanoic acid hydrochloride] | 1.1 | 0.07 | – |
| CCN(CC)CCCNC(=O)c1ccc(-c2ccc(C[C@H](NC(=O)[C@H]3CC[C@H](CN)CC3)C(=O)Nc3ccc(-c4nn[nH]n4)cc3)cc2)c(C)c1 [Example 29, 4′-[(2S)-2-({[trans-4-(Aminomethyl)cyclohexyl]carbonyl}amino)-3-oxo-3-{[4-(2H-tetrazol-5-yl)phenyl]amino}propyl]-N-[3-(diethylamino)propyl]-2-methylbiphenyl-4-carboxamide hydrochloride] | 3 | 0.14 | – |
| Cc1cc(C(=O)NC2CCN(C)CC2)ccc1-c1ccc(C[C@H](NC(=O)[C@H]2CC[C@H](CN)CC2)C(=O)Nc2ccc(-c3nc(C(F)(F)C(F)(F)C(=O)O)n[nH]3)cc2)cc1 [Example 100, 3-[5-(4-{[(2S)-2-({[trans-4-(Aminomethyl)cyclohexyl]carbonyl}amino)-3-{2′-methyl-4′-[(1-methylpiperidin-4-yl)carbamoyl]biphenyl-4-yl}propanoyl]amino}phenyl)-1H-1,2,4-triazol-3-yl]-2,2,3,3-tetrafluoropropanoic acid hydrochloride] | 2.2 | – | 0.1 |
| COCCOCCOCCOCCNC(=O)c1ccc(-c2ccc(C[C@H](NC(=O)[C@H]3CC[C@H](CN)CC3)C(=O)Nc3ccc4c(=O)[nH][nH]c4c3)cc2)c(C)c1 [Example 28, 4′-{(2S)-2-({[trans-4-(Aminomethyl)cyclohexyl]carbonyl}amino)-3-oxo-3-[(3-oxo-2,3-dihydro-1H-indazol-6-yl)amino]propyl}-2-methyl-N-(2,5,8,11-tetraoxatridecan-13-yl)biphenyl-4-carboxamide hydrochloride] | 14 | 0.33 | – |
| Cc1cc(C(=O)NCCCN(C)C)ccc1-c1ccc(C[C@H](NC(=O)[C@H]2CC[C@H](CN)CC2)C(=O)Nc2ccc3[nH]c(C(F)(F)C(F)(F)F)nc3c2)cc1 [Example 81, 4′-[(2S)-2-({[trans-4-(Aminomethyl)cyclohexyl]carbonyl}amino)-3-oxo-3-{[2-(pentafluoroethyl)-1H-benzimidazol-5-yl]amino}propyl]-N-[3-(dimethylamino)propyl]-2-methylbiphenyl-4-carboxamide hydrochloride] | 22 | 0.41 | – |
| CCN(CC)CCCNC(=O)c1ccc(-c2ccc(C[C@H](NC(=O)[C@H]3CC[C@H](CN)CC3)C(=O)Nc3ccc4c(=O)[nH][nH]c4c3)cc2)c(C)c1 [Example 24, 4′-{(2S)-2-({[trans-4-(Aminomethyl)cyclohexyl]carbonyl}amino)-3-oxo-3-[(3-oxo-2,3-dihydro-1H-indazol-6-yl)amino]propyl}-N-[3-(diethylamino)propyl]-2-methylbiphenyl-4-carboxamide hydrochloride] | 18 | 0.31 | – |
| Cc1cc(C(=O)N[C@H]2CCNC2)ccc1-c1ccc(C[C@H](NC(=O)[C@H]2CC[C@H](CN)CC2)C(=O)Nc2ccc(-c3nn[nH]n3)cc2)cc1 [Example 9, 4′-[(2S)-2-({[trans-4-(Aminomethyl)cyclohexyl]carbonyl}amino)-3-oxo-3-{[4-(2H-tetrazol-5-yl)phenyl]amino}propyl]-2-methyl-N-[(3S)-pyrrolidin-3-yl]biphenyl-4-carboxamide hydrochloride] | 1.7 | 0.09 | – |
| NC[C@H]1CC[C@H](C(=O)N[C@@H](Cc2ccc(-c3cc(F)c(C(=O)NC4CCNCC4)c(F)c3)cc2)C(=O)Nc2ccc(-c3nn[nH]n3)cc2)CC1 [Example 118, hydrochloride] | 2.9 | 0.11 | – |
| COC(=O)C1CCC(NC(=O)c2ccc(-c3ccc(C[C@H](NC(=O)[C@H]4CC[C@H](CN)CC4)C(=O)Nc4ccc(-c5nnn[nH]5)cc4)cc3)c(C)c2)C(=O)N1 (stereo partly drawn) [Example 151, Methyl 5-[({4′-[(2S)-2-({[trans-4-(aminomethyl)cyclohexyl]carbonyl}amino)-3-oxo-3-{[4-(1H-tetrazol-5-yl)phenyl]amino}propyl]-2-methylbiphenyl-4-yl}carbonyl)amino]-6-oxopiperidine-2-carboxylate hydrochloride] | 0.97 | 0.1 | – |
| Cc1cc(C(=O)NC2CCNCC2)ccc1-c1ccc(C[C@H](NC(=O)[C@H]2CC[C@H](CN)CC2)C(=O)Nc2ccc3cn[nH]c3c2)cc1 [Example 4, 4′-[(2S)-2-({[trans-4-(Aminomethyl)cyclohexyl]carbonyl}amino)-3-(1H-indazol-6-ylamino)-3-oxopropyl]-2-methyl-N-(piperidin-4-yl)biphenyl-4-carboxamide hydrochloride] | 11.9 | 0.21 | – |
| Cc1cc(C(=O)NC2CC3CCC(C2)N3C)ccc1-c1ccc(C[C@H](NC(=O)C2CCC(CN)CC2)C(=O)Nc2ccc(-c3nn[nH]n3)cc2)cc1 (stereo partly drawn) [Example 44, 4′-[(2S)-2-({[trans-4-(Aminomethyl)cyclohexyl]carbonyl}amino)-3-oxo-3-{[4-(2H-tetrazol-5-yl)phenyl]amino}propyl]-2-methyl-N-(8-methyl-8-azabicyclo[3.2.1]oct-3-yl)biphenyl-4-carboxamide hydrochloride] | 5.7 | 0.11 | – |
| Cc1cc(C(=O)NC2CCNCC2)ccc1-c1ccc(C[C@H](NC(=O)[C@H]2CC[C@H](CN)CC2)C(=O)Nc2ccc(-c3nc(C(F)(F)C(F)(F)C(=O)N(C)C)n[nH]3)cc2)cc1 [Example 126, 4′-{(2S)-2-({[trans-4-(Aminomethyl)cyclohexyl]carbonyl}amino)-3-[(4-{3-[3-(dimethylamino)-1,1,2,2-tetrafluoro-3-oxopropyl]-1H-1,2,4-triazol-5-yl}phenyl)amino]-3-oxopropyl}-2-methyl-N-(piperidin-4-yl)biphenyl-4-carboxamide hydrochloride] | 1.6 | 0.14 | – |
